Assay results from paper PMC4537157 (PLoS ONE, 2015).

Key:
Format in all cases: cell-based
human newborn cord blood = assay: Whole blood cytokine assay (TNF, IL-1β ELISA), newborn cord blood; conditions: 6 h
Protocol: (§1) Assessment of TLRA activity in whole blood was completed as previously described. […] Vehicle (DMSO) was added separately as a control. Suspensions containing 200 μl/well were gently mixed by pipetting and incubating for 6 h at 37°C in a humidified incubator at 5% CO2. After culture, plates were centrifuged at 500 x g and 100–150 μl of supernatant was carefully removed by pipetting without disturbing the cell pellet. Supernatants derived from human leukocyte stimulations were assayed by enzyme-linked immunoabsorbent assay (ELISA) for TNF (BD Biosciences, San Jose, CA, USA) and IL-1β (eBiosciences, San Diego, CA). Experiments were performed in triplicates.
(§2) Compound concentrations are shown in μM. Data are shown as mean ± SEM of n = 6–8.
(§3) Compound concentrations are shown in μM/ml. Cytokine production is shown as pg/ml. (PDF) Click here for additional data file.

[1] = test system: human adult peripheral blood; assay: Whole blood cytokine assay (TNF, IL-1β ELISA), adult peripheral blood; conditions: 6 h
Protocol: as §1, §2, §3

human newborn MoDCs = assay: TNF production by newborn monocyte-derived dendritic cells; conditions: human neonatal MoDCs, tested 0.1–10 μM, 24 h
[2] = test system: human newborn and adult leukocytes; assay: Whole blood and MoDC assays, overall potency as summarised in the discussion; conditions: Leukocyte, Tested in both whole blood and MoDC assays
Protocol: as §1

For `CCCCc1nc2c(N)nc3ccccc3c2n1Cc1ccc(CN)cc1` [Para-amine], the IL-1β production (human newborn cord blood; 0.01 µM) was 15.63 pg/mL, the TNF-α production (human newborn cord blood; 0.01 µM) was 64.05 pg/mL and the IL-1β production (human newborn cord blood; 0.03 µM) was 15.63 pg/mL. The TNF-α production (human newborn cord blood; 0.03 µM) was 120.31 pg/mL, the IL-1β production (human newborn cord blood; 0.1 µM) was 15.63 pg/mL and the TNF-α production (human newborn cord blood; 0.1 µM) was 70.49 pg/mL. The IL-1β production (human newborn cord blood; 0.3 µM) was 15.63 pg/mL, the TNF-α production (human newborn cord blood; 0.3 µM) was 381.52 pg/mL and the IL-1β production (human newborn cord blood; 1 µM) was 387.41 pg/mL. It also gave a TNF-α production (human newborn cord blood; 1 µM) of 1780.16 pg/mL, an IL-1β production (human newborn cord blood; 10 µM) of 2820.52 pg/mL and a TNF-α production (human newborn cord blood; 10 µM) of 16542.73 pg/mL. The IL-1β production ([1]; 0.01 µM) was 15.63 pg/mL, the TNF-α production ([1]; 0.01 µM) was 23.44 pg/mL and the IL-1β production ([1]; 0.03 µM) was 15.63 pg/mL. It also gave a TNF-α production ([1]; 0.03 µM) of 121.74 pg/mL, an IL-1β production ([1]; 0.1 µM) of 15.63 pg/mL and a TNF-α production ([1]; 0.1 µM) of 856.34 pg/mL. For the same compound, the IL-1β production ([1]; 0.3 µM) was 15.63 pg/mL, the TNF-α production ([1]; 0.3 µM) was 3653.12 pg/mL and the IL-1β production ([1]; 1 µM) was 419.70 pg/mL. For the same compound, the TNF-α production ([1]; 1 µM) was 6740.50 pg/mL, the IL-1β production ([1]; 10 µM) was 2008.09 pg/mL and the TNF-α production ([1]; 10 µM) was 18165.00 pg/mL.
Compound `CCCCc1nc2c(N)nc3ccccc3c2n1Cc1cccc(CN)c1` [Meta-amine] has an IL-1β production (human newborn cord blood; 0.01 µM) of 15.63 pg/mL, a TNF-α production (human newborn cord blood; 0.01 µM) of 79.15 pg/mL and an IL-1β production (human newborn cord blood; 0.03 µM) of 15.63 pg/mL. It also gave a TNF-α production (human newborn cord blood; 0.03 µM) of 78.72 pg/mL, an IL-1β production (human newborn cord blood; 0.1 µM) of 15.63 pg/mL and a TNF-α production (human newborn cord blood; 0.1 µM) of 94.65 pg/mL. For the same compound, the IL-1β production (human newborn cord blood; 0.3 µM) was 15.63 pg/mL, the TNF-α production (human newborn cord blood; 0.3 µM) was 93.72 pg/mL and the IL-1β production (human newborn cord blood; 1 µM) was 271.87 pg/mL. For the same compound, the TNF-α production (human newborn cord blood; 1 µM) was 1779.40 pg/mL, the IL-1β production (human newborn cord blood; 10 µM) was 6199.29 pg/mL and the TNF-α production (human newborn cord blood; 10 µM) was 32214.43 pg/mL. The IL-1β production ([1]; 0.01 µM) was 15.63 pg/mL, the TNF-α production ([1]; 0.01 µM) was 23.44 pg/mL and the IL-1β production ([1]; 0.03 µM) was 15.63 pg/mL. It also gave a TNF-α production ([1]; 0.03 µM) of 23.44 pg/mL, an IL-1β production ([1]; 0.1 µM) of 15.63 pg/mL and a TNF-α production ([1]; 0.1 µM) of 20.83 pg/mL. It also gave an IL-1β production ([1]; 0.3 µM) of 15.63 pg/mL, a TNF-α production ([1]; 0.3 µM) of 214.57 pg/mL and an IL-1β production ([1]; 1 µM) of 232.86 pg/mL. It also gave a TNF-α production ([1]; 1 µM) of 3739.68 pg/mL, an IL-1β production ([1]; 10 µM) of 2699.66 pg/mL and a TNF-α production ([1]; 10 µM) of 19087.54 pg/mL.
`CCOCc1nc2c(N)nc3ccccc3c2n1CC(C)(C)O` [R848, resiquimod, reference compound] showed an IL-1β production (human newborn cord blood; 0.01 µM) of 15.63 pg/mL, a TNF-α production (human newborn cord blood; 0.01 µM) of 95.80 pg/mL and an IL-1β production (human newborn cord blood; 0.03 µM) of 15.63 pg/mL. For the same compound, the TNF-α production (human newborn cord blood; 0.03 µM) was 84.29 pg/mL, the IL-1β production (human newborn cord blood; 0.1 µM) was 46.36 pg/mL and the TNF-α production (human newborn cord blood; 0.1 µM) was 68.30 pg/mL. The IL-1β production (human newborn cord blood; 0.3 µM) was 15.63 pg/mL, the TNF-α production (human newborn cord blood; 0.3 µM) was 210.98 pg/mL and the IL-1β production (human newborn cord blood; 1 µM) was 415.65 pg/mL. It also gave a TNF-α production (human newborn cord blood; 1 µM) of 654.85 pg/mL, an IL-1β production (human newborn cord blood; 10 µM) of 322.08 pg/mL and a TNF-α production (human newborn cord blood; 10 µM) of 1574.58 pg/mL. For the same compound, the IL-1β production ([1]; 0.01 µM) was 15.63 pg/mL, the TNF-α production ([1]; 0.01 µM) was 23.44 pg/mL and the IL-1β production ([1]; 0.03 µM) was 15.63 pg/mL. It also gave a TNF-α production ([1]; 0.03 µM) of 23.44 pg/mL, an IL-1β production ([1]; 0.1 µM) of 14.94 pg/mL and a TNF-α production ([1]; 0.1 µM) of 284.13 pg/mL. For the same compound, the IL-1β production ([1]; 0.3 µM) was 15.63 pg/mL, the TNF-α production ([1]; 0.3 µM) was 549.52 pg/mL and the IL-1β production ([1]; 1 µM) was 191.49 pg/mL. The TNF-α production ([1]; 1 µM) was 3939.41 pg/mL, the IL-1β production ([1]; 10 µM) was 1922.12 pg/mL and the TNF-α production ([1]; 10 µM) was 19454.73 pg/mL. The “Concentration inducing TNF” value (human newborn MoDCs) was 1 to 10 µM and the EC50 [2] was 1000 nM.
